Measurements as given in patent publication US20050130134A1, “Means and methods for monitoring non-nucleoside reverse transcriptase inhibitor antiretroviral therapy and guiding therapeutic decisions in the treatment HIV-AIDS” (ViroLogic, Inc., priority 2000, published 2005).
Entries after “also recorded” stand apart in the source; their conditions may differ.

What was measured:
[1] = test system: RTV-1058 clone 5 (RT L100I, K103N); assay: Phenotypic susceptibility assay, RTV-1058 clone 5; type: cell-based, HIV-1
Description: (§1) Transfections were performed using a calcium-phosphate precipitation procedure. […] Cell lysates were assayed for luciferase activity (FIG. 3). […] The drug inhibition curves are shown in (FIG. 3).

[2] = test system: RTV-302 patient virus (RT K103N, I135M, T200A, P225H); assay: Phenotypic susceptibility assay, RTV-302 (patient 97-302); type: cell-based, HIV-1
Description: as §1
This patient had been treated with d4T, indinavir and DMP-266 for a period of approximately 10 months. […] An IC50 was determined for each drug tested. Susceptibility of the patient virus to each drug was examined and compared to known patterns of susceptibility. […] Patient sample 97-302 was examined further for genotypic changes associated with the observed pattern of susceptibility.

[3] = test system: RTV-644 patient virus (RT K101E, G190S); assay: Phenotypic susceptibility assay, RTV-644 (patient 97-644 / 98-644); type: cell-based, HIV-1; conditions: for decrease in susceptibility: RTV-644 patient virus; for change in susceptibility / resistance: RTV-644 patient virus compared to reference virus
Description: (§2) Resistance tests were carried out with resistance test vectors using two host cell types. Resistance test vector viral particles were produced by a first host cell (the resistance test vector host cell) that was prepared by transfecting a packaging host cell with the resistance test vector and the packaging expression vector. The resistance test vector viral particles were then used to infect a second host cell (the target host cell) in which the expression of the indicator gene is measured.
(§3) The resistance test vectors containing a functional luciferase gene cassette were constructed and host cells were transfected with the resistance test vector DNA. The resistant test vectors contained patient-derived reverse transcriptase and protease sequences that were either susceptible or resistant to the antiretroviral agents, such as nucleoside reverse transcriptase inhibitors, non-nucleoside reverse transcriptase inhibitors and protease inhibitors. The resistance test vector viral particles produced by transfecting the resistance test vector DNA into host cells, either in the presence or absence of protease inhibitors, were used to infect target host cells grown either in the absence of NRTI or NNRTI or in the presence of increasing concentrations of the drug. The amount of luciferase activity produced in infected target host cells in the presence of drug was compared to the amount of luciferase produced in infected target host cells in the absence of drug. Drug resistance was measured as the amount of drug required to inhibit by 50% the luciferase activity detected in the absence of drug (inhibitory concentration 50%, IC50). The IC50 values were determined by plotting percent drug inhibition vs. log10 drug concentration.
Host cells were seeded in 10-cm-diameter dishes and were transfected several days after plating with resistance test vector plasmid DNA and the envelope expression vector. Transfections were performed using a calcium-phosphate precipitation procedure. The cell culture media containing the DNA precipitate was replaced with fresh medium, from one to 24 hours, after transfection. […] HIV capsid protein (p24) levels in the harvested cell culture media were determined by an EIA method as described by the manufacturer (SIAC; Frederick, Md.). […] The inhibitory effect of the drug was determined using the following equation: % luciferase inhibition=1-(RLUluc[drug]÷RLUluc)×100 where RLUluc [drug] is the relative light unit of luciferase activity in infected cells in the presence of drug and RLUluc is the Relative Light Unit of luciferase activity in infected cells in the absence of drug. […]

[4] = test system: HIV-1 reverse transcriptase P225H plus K103N, Y181C or both; assay: Phenotypic susceptibility assay, P225H with K103N, Y181C or K103N+Y181C; type: cell-based; conditions: P225H added to K103N, Y181C or K103N+Y181C versus corresponding RTV lacking P225H
Description: as §1
Resistance test vectors were constructed containing the P225H mutation alone and in combination with other known drug resistance mutations (K103N, Y181C) known to modulate the HIV susceptibility to NNRTIs. […] (Sakar G and Sommar S S (1994) Biotechniques 8(4), 404-407). […] The P225H mutation was also introduced into a RTV containing additional mutations at K103N, Y181C or both (K103N+Y181C).

[5] = test system: HIV-1 reverse transcriptase K103N + Y188L (K103N-Y188L-RTV); assay: Phenotypic susceptibility assay, site directed mutant K103N-Y188L-RTV; type: cell-based; conditions: >1 loss of susceptibility
Description: as §2
(§4) The resistance test vectors containing a functional luciferase gene cassette were constructed and host cells were transfected with the resistance test vector DNA. The resistant test vectors contained patient-derived reverse transcriptase and protease sequences that were either susceptible or resistant to the antiretroviral agents, such as nucleoside reverse transcriptase inhibitors, non-nucleoside reverse transcriptase inhibitors and protease inhibitors. […] The IC50 values were determined by plotting percent drug inhibition vs. log10 drug concentration.
(§5) Host cells were seeded in 10-cm-diameter dishes and were transfected several days after plating with resistance test vector plasmid DNA and the envelope expression vector. […] HIV capsid protein (p24) levels in the harvested cell culture media were determined by an EIA method as described by the manufacturer (SIAC; Frederick, Md.). […]

[6] = test system: HIV-1 reverse transcriptase Y188H (Y188H-RTV); conditions: >1 loss of susceptibility
Description: as §2, §4, §5

[7] = test system: HIV-1 reverse transcriptase L100I + K103N + Y188L (L100I-K103N-Y188L-RTV); assay: Phenotypic susceptibility assay, site directed mutant L100I-K103N-Y188L-RTV; type: cell-based; conditions: >1 loss of susceptibility
Description: as §2, §4, §5

[8] = test system: HIV-1 reverse transcriptase L100I + K103N (L100I-K103N-RTV); assay: Phenotypic susceptibility assay, site directed mutant L100I-K103N-RTV; type: cell-based; conditions: >1 loss of susceptibility
Description: as §2, §4, §5

[9] = test system: Tyr181Cys (Y181C) mutation of HIV RT; conditions: cited from earlier work
[10] = test system: RTV-268 patient virus (RT P236L with M41L, D67N, M184V, L210W, T215Y, K219Q); assay: Phenotypic susceptibility assay, RTV-268 (patient 97-268); type: cell-based, HIV-1; conditions: RTV-268 patient virus compared to reference virus
Description: as §2, §3
Host cells were seeded in 10-cm-diameter dishes and were transfected several days after plating with resistance test vector plasmid DNA and the envelope expression vector. Transfections were performed using a calcium-phosphate precipitation procedure. The cell culture media containing the DNA precipitate was replaced with fresh medium, from one to 24 hours, after transfection. Cell culture media containing resistance test vector viral particles was harvested one to four days after transfection and was passed through a […] filter before being stored at −80° C. HIV capsid protein (p24) levels in the harvested cell culture media were determined by an EIA method as described by the manufacturer (SIAC; Frederick, Md.). Before infection, target cells (293 and 293/T) were plated in cell culture media. Control infections were performed using cell culture media from mock transfections (no DNA) or transfections containing the resistance test vector plasmid DNA without the envelope expression plasmid. One to three or more days after infection the media was removed and cell lysis buffer (Promega) was added to each well. […] The inhibitory effect of the drug was determined using the following equation: % luciferase inhibition=1-(RLUluc[drug]÷RLUluc)×100 where RLUluc [drug] is the relative light unit of luciferase activity in infected cells in the presence of drug and RLUluc is the Relative Light Unit of luciferase activity in infected cells in the absence of drug. IC50 values were obtained from the sigmoidal curves that were generated from the data by plotting the percent inhibition of luciferase activity vs. the log10 drug concentration.
A resistance test vector was constructed as described in Example 1 from a patient sample designated 97-268. […] Isolation of viral RNA and RT/PCR was used to generate a patient derived segment that comprised viral sequences coding for all of PR and amino acids 1-313 of RT. The patient derived segment was inserted into a indicator gene viral vector to generate a resistance test vector designated RTV-268.

[11] = test system: RTV-964 patient virus (RT Y181I); assay: Phenotypic susceptibility assay, RTV-964 (patient 98-964); type: cell-based, HIV-1
Description: as §1

| SMILES | loss of susceptibility [1] | change in susceptibility [2] | decrease in susceptibility [3] | change in susceptibility / resistance [3] | change in susceptibility [4] | fold change in susceptibility compared to wild type control RTV [5] | fold change in susceptibility compared to wild type control RTV [6] | fold change in susceptibility compared to wild type control RTV [7] | fold change in susceptibility compared to wild type control RTV [8] | reduction in sensitivity [9] | change in susceptibility / resistance [10] | decrease in susceptibility [11] |
| --- | --- | --- | --- | --- | --- | --- | --- | --- | --- | --- | --- | --- |
| CC(C)Nc1cccnc1N1CCN(C(=O)c2cc3cc(NS(C)(=O)=O)ccc3[nH]2)CC1 [delavirdine] | 250 fold | modest decrease; also recorded: reduced susceptibility | 2.5 fold | little or no resistance | more susceptible to inhibition; also recorded: increase; also recorded: decreases the amount of delavirdine resistance | – | – | – | – | – | – | – |
| Cc1ccnc2c1NC(=O)c1cccnc1N2C1CC1 [nevirapine] | 120 fold | significant decrease; also recorded: reduced susceptibility | 600 fold | resistant; also recorded: large reduction in susceptibility | did not significantly change; also recorded: little or no change; also recorded: does not decrease the amount of nevirapine resistance | greater than 800 fold | 3.5 fold | greater than 800 fold | 70 fold | 100 fold | no change; also recorded: the same as wild type | 750 fold |
